The text below walks through data of US20240300980A1, “HETEROCYCLIC COMPOUNDS AS KRAS INHIBITOR, AND PREPARATION THEREFOR AND USE THEREOF IN TREATMENT” (SHANGHAI KECHOW PHARMA, INC., priority 2021, published 2024).

pIC50: −log10 of the molar value. Bounds are passed on as bounds.

In one assay the test system is AGS cells (KRAS^G12D). Nature of the assay: Detection of cell proliferation in vitro by MTT/MTS method (cell activity experiment). Type of assay: cell-based. To be noted: AGS cells; MTT/MTS; 3 days of drug treatment; read-out: AGS IC50. In short, it runs like this:
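After 3-day compound exposure (final DMSO 0.5%), viability of AGS (KRAS G12D) cells, plated 1000/well one day before dosing, was measured at 490 nm following 4 h MTT or MTS incubation. IC50 was fitted from dose–effect curves relative to DMSO-treated wells.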
Turning to `C#Cc1c(F)ccc2cc(O)cc(-c3cc4nc(OC[C@@]56CCCN5C[C@H](F)C6)nc(N5C[C@H]6CC[C@@H](C5)N6)c4c4occc34)c12` [Example 384, 4-(9-((2R,5S)-3,8-diazabicyclo[3.2.1]octan-3-yl)-7-(((2R,7aS)-2-fluorotetrahydro-1H-pyrrolizin-7a(5H)-yl)methoxy)furo[2,3-f]quinazolin-4-yl)-5-ethynyl-6-fluoronaphthalen-2-ol], the pIC50 (commonly the negative decadic logarithm of the IC50, by convention in mol/L) was 6.67.

The assay is the same for the next values; noted with them: Homo sapiens, AGS, 72 h, AGS cells; MTT/MTS; 3 days of drug treatment; read-out: AGS IC50.
Turning to `CCc1cccc2cc(O)cc(-c3ccc4c(N5C[C@H]6CC[C@@H](C5)N6)nc(OCC5(CN6CCCC6)CC5)nc4c3F)c12` [Example 104, 4-(4-((1R,5S)-3,8-diazabicyclo[3.2.1]octan-3-yl)-8-fluoro-2-((1-(pyrrolidin-1-ylmethyl)cyclopropyl)methoxy)quinazolin-7-yl)-5-ethylnaphthalen-2-ol], the pIC50 was 7.24.
On to `CC[C@@H]1CCCc2cc(O)cc(-c3ncc4c(N5CC6CCC(C5)N6)nc(OC[C@@]56CCCN5C[C@H](F)C6)nc4c3F)c21` (single isomer, unassigned) [Example 228, (R)-4-(4-((1R,5S)-3,8-diazabicyclo[3.2.1]octan-3-yl)-8-fluoro-2-(((2R,7aS)-2-fluorotetrahydro-1H-pyrrolizin-7a(5H)-yl)methoxy)pyrido[4,3-d]pyrimidin-7-yl)-5-ethyl-5,6,7,8-tetrahydronaphthalen-2-ol or (S)-4-(4-((1R,5S)-3,8-diazabicyclo[3.2.1]octan-3-yl)-8-fluoro-2-(((2R,7aS)-2-fluorotetrahydro-1H-pyrrolizin-7a(5H)-yl)methoxy)pyrido[4,3-d]pyrimidin-7-yl)-5-ethyl-5,6,7,8-tetrahydronaphthalen-2-ol], for which the pIC50 was 5.96.
The same measure, in the same setting: the value for `C#Cc1c(F)ccc2cc(O)cc(-c3ccc4c(N5CC6(CNC6)C5)nc(OC[C@@]56CCCN5C[C@H](F)C6)nc4c3F)c12` [Example 135, 5-ethynyl-6-fluoro-4-(8-fluoro-2-(((2R, 7aS)-2-fluorotetrahydro-1H-pyrrolizin-7a(5H)-yl)methoxy)-4-(2,6-diazaspiro[3.3]heptan-2-yl)quinazolin-7-yl)naphthalen-2-ol] was 5.92; that for `C#Cc1c(F)ccc2cc(O)cc(-c3ccc4c(N5CCC(N)C5)nc(OC[C@@]56CCCN5C[C@H](F)C6)nc4c3F)c12` (stereo partly drawn) [Example 111, 4-(4-(3-aminopyrrolidin-1-yl)-8-fluoro-2-(((2R,7aS)-2-fluorotetrahydro-1H-pyrrolizin-7a(5H)-yl)methoxy)quinazolin-7-yl)-5-ethynyl-6-fluoronaphthalen-2-ol] was below 5.60; that for `CCc1c(F)ccc2cc(O)cc(-c3ccc4c(N5C[C@H]6CC[C@@H](C5)N6)c(C#N)c(OC[C@@]56CCCN5C[C@H](F)C6)nc4c3F)c12` [Example 178, 4-((1R,5S)-3,8-diazabicyclo[3.2.1]octan-3-yl)-7-(8-ethyl-7-fluoro-3-hydroxynaphthalen-1-yl)-8-fluoro-2-(((2R,7aS)-2-fluorotetrahydro-1H-pyrrolizin-7a(5H)-yl)methoxy)quinoline-3-carbonitrile] was 6.27.
`C#Cc1c(F)ccc2cccc(-c3ccc4c(N5C[C@H]6CC[C@@H](C5)N6)nc(OC[C@]56CCCN5[C@@H](COC(=O)N(C)C)CC6)nc4n3)c12` [Example 147, ((3R,7aR)-7a-(((4-((1R, 5S)-3,8-diazabicyclo [3.2.1]octan-3-yl)-7-(8-ethynyl-7-fluoronaphthalen-1-yl)pyrido[2,3-d]pyrimidin-2-yl)oxy)methyl)hexahydro-1H-pyrrolizin-3-yl)methyl dimethylcarbamate]: the pIC50 is below 5.60.
As for `CCc1c(F)ccc2cc(O)cc(N3CCc4c(nc(OC[C@@]56CCCN5C[C@H](F)C6)nc4N4C[C@H]5CC[C@@H](C4)N5)C3)c12` [Example 203, 4-(4-((1R,5S)-3,8-diazabicyclo[3.2.1]octan-3-yl)-2-(((2R,7aS)-2-fluorotetrahydro-1H-pyrrolizin-7a(5H)-yl)methoxy)-5,8-dihydropyrido[3,4-d]pyrimidin-7(6H)-yl)-5-ethyl-6-fluoronaphthalen-2-ol], the pIC50 was 7.77.
The same measure, in the same setting: the value for `CCc1c(F)ccc2cc(O)cc(-c3ccc4c(N5C[C@H]6CC[C@@H](C5)N6)c(C(F)(F)F)c(OC[C@@]56CCCN5C[C@H](F)C6)nc4c3F)c12` [Example 186, 4-(4-((1R,5S)-3,8-diazabicyclo[3.2.1]octan-3-yl)-8-fluoro-2-(((2R,7aS)-2-fluorotetrahydro-1H-pyrrolizin-7a(5H)-yl)methoxy)-3-(trifluoromethyl)quinolin-7-yl)-5-ethyl-6-fluoronaphthalen-2-ol] was 5.85.
Still for that read-out and setting: the value for `Oc1cc(-c2ccc3c(N4C[C@H]5CC[C@@H](C4)N5)c(C(F)(F)F)c(OC[C@@]45CCCN4C[C@H](F)C5)nc3c2F)c2c(F)c(F)ccc2c1` [Example 187, 4-(4-((1R,5S)-3,8-diazabicyclo[3.2.1]octan-3-yl)-8-fluoro-2-(((2R,7aS)-2-fluorotetrahydro-1H-pyrrolizin-7a(5H)-yl)methoxy)-3-(trifluoromethyl)quinolin-7-yl)-5,6-difluoronaphthalen-2-ol] was 5.85; that for `CCc1c(F)ccc2cc(O)cc(-c3ccc4c(N5C[C@H]6CC[C@@H](C5)N6)nc(OC[C@]56CCCN5[C@@H](COC(=O)N(C)C)CC6)nc4c3)c12` [Example 154, ((3R,7aR)-7a-(((4-((1R, 5S)-3,8-diazabicyclo [3.2.1]octan-3-yl)-7-(8-ethyl-7-fluoro-3-hydroxynaphthalen-1-yl)quinazolin-2-yl)oxy)methyl)hexahydro-1H-pyrrolizin-3-yl) methyl dimethylcarbamate] was 6.71.
As to `C#Cc1cccc2cc(O)cc(-c3ncc4c(N5C[C@H]6CC[C@@H](C5)C6(F)F)nc(OC[C@@]56CCCN5C[C@H](F)C6)nc4c3F)c12` [Example 32, 4-(4-((1R,5S)-8,8-difluoro-3-azabicyclo [3.2.1]octan-3-yl)-8-fluoro-2-(((2R,7aS)-2-fluorotetrahydro-1H-pyrrolizin-7a(5H)-yl)methoxy)pyrido[4,3-d]pyrimidin-7-yl)-5-ethynylnaphthalen-2-ol], the pIC50 is below 5.60.
In the case of `C#Cc1c(F)ccc2cc(O)cc(-c3ccc4c(N5C[C@H]6CC[C@@H](C5)S6(=O)=O)nc(OC[C@@]56CCCN5C[C@H](F)C6)nc4c3F)c12` [Example 160, (1R,5S)-3-(7-(8-ethynyl-7-fluoro-3-hydroxynaphthalen-1-yl)-8-fluoro-2-(((2R,7aS)-2-fluorotetrahydro-1H-pyrrolizin-7a(5H)-yl)methoxy)quinazolin-4-yl)-8-thia-3-azabicyclo[3.2.1]octane 8,8-dioxide], the pIC50 was below 5.60.
Still for that read-out and setting: the value for `[O-][S+]1CCCc2cc(O)cc(-c3ncc4c(N5C[C@H]6CC[C@@H](C5)N6)nc(OC[C@@]56CCCN5C[C@H](F)C6)nc4c3F)c21` (stereo partly drawn) [Example 251, 8-(4-((1R,5S)-3,8-diazabicyclo[3.2.1]octan-3-yl)-8-fluoro-2-(((2R,7aS)-2-fluorotetrahydro-1H-pyrrolizin-7a(5H)-yl)methoxy)pyrido[4,3-d]pyrimidin-7-yl)-6-hydroxythiochromane 1-oxide] was below 5.60.
Same read-out and setting: with `C#Cc1c(F)ccc2cc(O)cc(-c3ncc4c(N5CC6CC(C5)N6)nc(OC[C@@]56CCCN5C[C@H](F)C6)nc4c3F)c12` [Example 45, 4-(4-(3,6-diazabicyclo [3.1.1]heptan-3-yl)-8-fluoro-2-(((2R,7aS)-2-fluorotetrahydro-1H-pyrrolizin-7a(5H)-yl)methoxy)pyrido[4,3-d]pyrimidin-7-yl)-5-ethynyl-6-fluoronaphthalen-2-ol] the figure was 7.41.
